Assay results as given in publication PMC3714604 (European journal of medicinal chemistry, 2011).
Where two headings read alike, the source gives them in different places.

What was measured:
[1] = system: rat brain membrane FAAH; conditions: cited from earlier work
[2] = In vitro chemical stability at alkaline pH; assay type: physicochemical; conditions: 1 μM, 300 nM, 100 nM
[3] = system: FAAH; conditions: rats; ref [24]; cited from earlier work
[4] = In vitro stability in rat liver S9 fraction with NADPH-regenerating system; assay type: in vitro ADME; conditions: for half-life: male, Wistar, rat, s9, pH 7.4
[5] = rat brain membrane FAAH activity, ref [24] and [38]

| SMILES | pIC50, inhibitory potency toward FAAH in vitro activity [1, 5] | further results |
| --- | --- | --- |
| O=C(NC1CCCCC1)Oc1cccc(-c2ccccc2)c1 [Compound 1] | 7.20 | dependence of pseudo half-lives on concentration at pH 9.0 [2]: No significant difference; ID50, in vivo potency on FAAH inhibition [3]: 0.81 mg/kg |
| CNC(=O)Oc1cccc(-c2ccccc2)c1 [Compound 3] | 4.86 | – |
| CC(C)NC(=O)Oc1cccc(-c2ccccc2)c1 [Compound 4] | 6.28 | half-life [4]: < 2 min |
| CCCCNC(=O)Oc1cccc(-c2ccccc2)c1 [Compound 5] | 6.95 | half-life [4]: < 2 min |
| CCCCCCNC(=O)Oc1cccc(-c2ccccc2)c1 [Compound 6] | 7.24 | – |
| O=C(NC1CCC1)Oc1cccc(-c2ccccc2)c1 [Compound 7] | 7.27 | – |
| O=C(NC1CCCC1)Oc1cccc(-c2ccccc2)c1 [Compound 8] | 7.47 | – |
| O=C(NCC1CCCCC1)Oc1cccc(-c2ccccc2)c1 [Compound 9] | 7.18 | – |
| O=C(NC12CC3CC(CC(C3)C1)C2)Oc1cccc(-c2ccccc2)c1 [Compound 10] | 5.39 | stability to in vitro liver metabolism ([4]; rat liver S9, entire testing period): remained stable for the entire testing period; dependence of pseudo half-lives on concentration at pH 9.0 [2]: No significant difference |
| O=C(NCc1ccccc1)Oc1cccc(-c2ccccc2)c1 [Compound 11] | 6.86 | – |
| O=C(NCCc1ccccc1)Oc1cccc(-c2ccccc2)c1 [Compound 12] | 6.32 | – |
| O=C(NC1Cc2ccccc2C1)Oc1cccc(-c2ccccc2)c1 [Compound 13] | 6.67 | half-life [4]: > 60 min |
| O=C(NCc1ccc2ccccc2c1)Oc1cccc(-c2ccccc2)c1 [Compound 15] | 8.27 | – |
| O=C(NCCCCc1ccccc1)Oc1cccc(-c2ccccc2)c1 [Compound 16] | 8.03 | dependence of pseudo half-lives on concentration at pH 9.0 [2]: No significant difference; ID50, in vivo potency on FAAH inhibition [3]: 0.96 mg/kg |
| O=C(NCCCCCCc1ccccc1)Oc1cccc(-c2ccccc2)c1 [Compound 17] | 7.89 | – |
| O=C(NCCCCCCN1CCOCC1)Oc1cccc(-c2ccccc2)c1 [Compound 18] | 7.40 | – |
| NC(=O)c1cccc(-c2cccc(OC(=O)NCc3ccc4ccccc4c3)c2)c1 [Compound 19] | – | pIC50, inhibitory potency toward FAAH in vitro activity [1]: 9.20 |
